The results in this text go back to US7589213B2 (priority 2007, dated 2009).

Each structure is given as a SMILES string. pEC50, pKi: −log10 of the molar value. Where only a bound is given, the exact number is not on record here.

Data set [1] deals with T1, EP2 (Homo sapiens, UniProt P43116). Put plainly: EP2 binding (Ki). An excerpt:
(§1) U.S. patent application Ser. No. 11/553,143, filed on Oct. 26, 2006, incorporated by reference herein, describes the methods used to obtain the in vitro data in the table below.

Data set [2] deals with T2, hEP3A (Homo sapiens, UniProt P43115).
T2 sequence (P43115 1-390): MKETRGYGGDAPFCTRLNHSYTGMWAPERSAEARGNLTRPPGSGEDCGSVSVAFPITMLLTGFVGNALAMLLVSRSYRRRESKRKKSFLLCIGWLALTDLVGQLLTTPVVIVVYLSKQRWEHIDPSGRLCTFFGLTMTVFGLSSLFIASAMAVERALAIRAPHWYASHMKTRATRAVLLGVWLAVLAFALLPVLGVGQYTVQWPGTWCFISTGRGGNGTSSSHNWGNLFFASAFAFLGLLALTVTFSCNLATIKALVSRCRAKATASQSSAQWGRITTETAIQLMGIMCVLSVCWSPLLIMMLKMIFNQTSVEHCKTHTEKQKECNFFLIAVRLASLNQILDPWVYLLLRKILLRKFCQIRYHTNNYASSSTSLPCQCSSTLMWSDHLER
As to the kind of experiment: Other receptors functional EC50, hEP3A. It is filed as cell-based.
From the text: as §1

Data set [3] has as its target T3, hDP (Homo sapiens, UniProt Q13258).
T3 sequence (Q13258 1-359): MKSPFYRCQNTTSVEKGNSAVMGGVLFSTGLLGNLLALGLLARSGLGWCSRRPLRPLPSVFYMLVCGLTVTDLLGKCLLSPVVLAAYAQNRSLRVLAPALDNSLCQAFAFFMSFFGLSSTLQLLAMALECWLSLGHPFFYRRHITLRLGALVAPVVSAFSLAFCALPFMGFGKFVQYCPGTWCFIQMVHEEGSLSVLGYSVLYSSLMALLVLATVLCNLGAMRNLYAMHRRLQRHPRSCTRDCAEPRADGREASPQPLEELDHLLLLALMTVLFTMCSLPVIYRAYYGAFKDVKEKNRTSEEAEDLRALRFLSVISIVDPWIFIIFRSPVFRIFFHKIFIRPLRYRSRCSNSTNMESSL
As to the kind of experiment: Other receptors functional EC50, hDP. It is filed as cell-based.
From the text: as §1

Data set [4] addresses T1, EP2. As to the kind of experiment: EP2 flipr assay. It counts as cell-based.
From the text: as §1

The target in data set [5] is T1, EP2. Put plainly: EP2 cAMP assay. It is filed as cell-based.
From the text: as §1

The target of data set [6] is T4, hEP1 (Homo sapiens, UniProt P34995).
T4 sequence (P34995 1-402): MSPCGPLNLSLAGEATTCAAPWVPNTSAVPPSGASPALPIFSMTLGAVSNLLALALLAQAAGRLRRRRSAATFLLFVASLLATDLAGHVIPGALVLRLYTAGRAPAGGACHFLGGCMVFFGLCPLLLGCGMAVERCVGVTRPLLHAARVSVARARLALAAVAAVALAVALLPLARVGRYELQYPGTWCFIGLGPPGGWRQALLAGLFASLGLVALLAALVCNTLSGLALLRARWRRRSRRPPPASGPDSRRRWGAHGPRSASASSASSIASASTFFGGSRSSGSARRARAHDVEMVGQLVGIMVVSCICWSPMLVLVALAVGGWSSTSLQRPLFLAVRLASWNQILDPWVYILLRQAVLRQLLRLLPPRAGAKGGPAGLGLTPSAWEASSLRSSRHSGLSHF
Put plainly: Other receptors functional EC50, hEP1. It is filed as cell-based.
From the text: as §1

For data set [7], the target named is T5, EP4 (Homo sapiens, UniProt P35408). As to the kind of experiment: EP4 binding (KI).
From the text: as §1

For data set [8], the target named is T5, EP4. Put plainly: EP4 flipr assay. It counts as cell-based.
From the text: as §1

The test system of data set [9] is normotensive dogs. Put plainly: Intraocular pressure and ocular surface hyperemia in normotensive dogs. It is filed as in vivo, dog. The following applies: once daily for 5 days. The procedure:
U.S. Pat. No. 7,091,231 describes the methods used to carry out the tests reported below.
[…] The maximum intraocular pressure (IOP) decrease from baseline was 6.3 mmHg (39%) at 4 h; the maximum ocular surface hyperemia (OSH) score was 1.6 at 28 hours. This compound was also tested in laser-induced hypertensive monkeys, using one single day dose. At 0.01%, the maximum IOP decrease from baseline was 23 mmHg (61%) at 24 hours.

Data set [10] deals with T6, hTP (Homo sapiens, UniProt P21731).
T6 sequence (P21731 1-343): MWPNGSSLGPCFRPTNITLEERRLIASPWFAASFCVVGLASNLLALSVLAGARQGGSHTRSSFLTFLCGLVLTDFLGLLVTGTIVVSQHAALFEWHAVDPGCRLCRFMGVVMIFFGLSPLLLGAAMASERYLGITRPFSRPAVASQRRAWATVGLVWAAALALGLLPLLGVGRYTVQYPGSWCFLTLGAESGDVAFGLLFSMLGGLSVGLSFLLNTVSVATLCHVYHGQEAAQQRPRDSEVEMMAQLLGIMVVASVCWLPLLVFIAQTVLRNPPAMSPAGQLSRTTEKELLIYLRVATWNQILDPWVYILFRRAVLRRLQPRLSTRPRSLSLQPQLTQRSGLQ
As to the kind of experiment: Other receptors functional EC50, hTP. It is filed as cell-based.
From the text: as §1

T5 sequence (P35408 whole entry): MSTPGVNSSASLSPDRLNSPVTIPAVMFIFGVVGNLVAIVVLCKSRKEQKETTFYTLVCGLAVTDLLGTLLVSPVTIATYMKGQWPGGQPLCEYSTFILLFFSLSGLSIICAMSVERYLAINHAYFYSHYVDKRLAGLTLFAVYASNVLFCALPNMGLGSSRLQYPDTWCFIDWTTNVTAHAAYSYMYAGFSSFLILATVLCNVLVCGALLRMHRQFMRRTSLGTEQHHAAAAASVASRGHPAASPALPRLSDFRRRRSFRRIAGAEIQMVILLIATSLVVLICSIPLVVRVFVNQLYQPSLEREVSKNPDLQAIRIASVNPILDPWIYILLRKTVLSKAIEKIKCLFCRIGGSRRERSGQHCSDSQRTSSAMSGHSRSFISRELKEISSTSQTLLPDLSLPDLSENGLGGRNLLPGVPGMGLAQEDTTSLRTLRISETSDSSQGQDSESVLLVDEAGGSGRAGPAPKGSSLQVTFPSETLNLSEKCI
T1 sequence (P43116 whole entry): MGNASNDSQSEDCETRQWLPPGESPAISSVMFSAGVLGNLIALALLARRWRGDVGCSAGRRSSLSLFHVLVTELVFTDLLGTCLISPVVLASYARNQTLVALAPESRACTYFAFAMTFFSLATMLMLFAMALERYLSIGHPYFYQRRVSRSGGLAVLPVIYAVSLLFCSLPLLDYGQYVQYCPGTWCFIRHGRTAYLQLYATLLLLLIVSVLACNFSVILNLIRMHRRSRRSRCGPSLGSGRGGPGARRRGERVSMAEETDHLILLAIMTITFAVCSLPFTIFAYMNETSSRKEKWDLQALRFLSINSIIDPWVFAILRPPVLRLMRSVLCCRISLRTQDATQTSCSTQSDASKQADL

As to `CCCCCC(O)c1ccc(N2C(=O)CC[C@@H]2CCSc2nc(C(=O)O)cs2)cc1` (single isomer, unassigned) [compound 17], the pKi in data set [1] was 7.82. In addition, the figures for the EC50 in data set [2], in data set [3] and in data set [6] were 35 nM, greater than 10000 nM and greater than 10000 nM, respectively. Moreover, the pEC50 is 7.74 in data set [4] and 9.82 in data set [5].
Turning to `CCCCCC(O)c1ccc(N2C(=O)CC[C@@H]2CCSc2nc(C(=O)O)cs2)cc1` (single isomer, unassigned) [compound 18], the pKi in data set [1] is 7.82. The half-maximal effective concentration (EC50) in [2] was determined as 46 nM; in [3] it was 7170 nM. Moreover, the negative logarithm of the EC50 (pEC50) in data set [4] is 8.15; in data set [5], 10.05.
Take `CCCCCCC(O)c1ccc(N2C(=O)CC[C@@H]2CCSc2nc(C(=O)O)cs2)cc1` (single isomer, unassigned) [compound 36]: the negative-log Ki (pKi) was 7.89 in [1] and less than 5.00 in data set [7]. Besides, the EC50 was found to be 11 nM in data set [2] and 11900 nM in [3]. Besides, the negative logarithm of the EC50 (pEC50) in data set [4] is 7.24; in data set [5], 8.92.
As for `CCCCCCC(O)c1ccc(N2C(=O)CC[C@@H]2CCSc2nc(C(=O)O)cs2)cc1` (single isomer, unassigned) [compound 37], the pEC50 in [8] was 4.83; in data set [4], 7.96; in [5], 9.40. Also, the pKi was 8.05 in [1] and 5.04 in data set [7]. Besides, the EC50 in data set [2] amounted to 51 nM; in data set [3] it was 5320 nM.
As for `CCCCCC(O)c1ccc(N2C(=O)CC[C@@H]2CCSc2nc(C(=O)OC(C)C)cs2)cc1` (single isomer, unassigned) [compound 67], the “maximum ocular surface hyperemia (OSH) score” value in data set [9] (0.001%, maximum at 50 hours) came out at 1.9; in [9] (0.01%, maximum at 26 hours), 2.0.
`CCCCCC(O)c1ccc(N2C(=O)CC[C@@H]2CCSc2nc(C(=O)OC(C)C)cs2)cc1` (single isomer, unassigned) [compound 68]: the “maximum ocular surface hyperemia (OSH) score” value in data set [9] (0.01%, maximum at 28 hours) is given as 2.0.
In the case of `CCCCCC(F)c1ccc(N2C(=O)CC[C@@H]2CCSc2nc(C(=O)O)cs2)cc1` (stereo partly drawn) [compound 19, (R)-2-(2-(1-(4-(1-fluorohexyl)phenyl)-5-oxopyrrolidin-2-yl)ethylthio)thiazole-4-carboxylic acid], the pKi was 8.05 in [1] and less than 5.00 in [7]. Besides, the concentration for a half-maximal effect (EC50) was 90 nM in [2], greater than 10000 nM in [3] and greater than 10000 nM in data set [6]. The negative-log EC50 (pEC50) in [4] is 8.10; in [5], 9.64.
As for `CCCCCCC(O)c1ccc(N2C(=O)CC[C@@H]2CCSc2nc(C(=O)O)cs2)cc1` (stereo partly drawn) [compound 33, (R)-2-(2-(1-(4-(1-hydroxyheptyl)phenyl)-5-oxopyrrolidin-2-yl)ethylthio)thiazole-4-carboxylic acid], the results for the pEC50 in data set [8], in data set [4] and in data set [5] were less than 5.00, 8.52 and 9.40, respectively. Further, the results for the negative-log Ki (pKi) in data set [1] and in data set [7] were 7.92 and 5.20, respectively. The half-maximal effective concentration (EC50) is 25 nM in data set [2], 1560 nM in data set [3] and greater than 10000 nM in data set [6].
In the case of `CCCCCCC(=O)c1ccc(N2C(=O)CC[C@@H]2CCSc2nc(C(=O)O)cs2)cc1` [compound 38, (R)-2-(2-(1-(4-heptanoylphenyl)-5-oxopyrrolidin-2-yl)ethylthio)thiazole-4-carboxylic acid], the pEC50 in data set [8] was less than 5.00; in data set [4] it was 7.35; in data set [5], 9.15. Also, the negative-log Ki (pKi) in [1] was 7.74; in [7], 5.52. For the same molecule, the EC50 in data set [2] worked out at 43 nM; in [3] it was 594 nM.
As to `CCCCCC(O)c1ccc(N2C(=O)CC[C@@H]2COCc2cc(C(=O)O)cs2)cc1` (stereo partly drawn) [compound 42, (R)-5-(((1-(4-(1-hydroxyhexyl)phenyl)-5-oxopyrrolidin-2-yl)methoxy)methyl)thiophene-3-carboxylic acid], the pKi in data set [1] is 6.35; in [7], less than 5.00. The half-maximal effective concentration (EC50) in data set [2] turned out to be 1520 nM. The values for the pEC50 in data set [4] and in [5] were 5.65 and 8.26, respectively.
The matching figures for `CCCCCC(F)c1ccc(N2C(=O)CC[C@@H]2COCc2cc(C(=O)O)cs2)cc1` (stereo partly drawn) [compound 43, (R)-5-(((1-(4-(1-fluorohexyl)phenyl)-5-oxopyrrolidin-2-yl)methoxy)methyl)thiophene-3-carboxylic acid]: 6.59, less than 5.00, 1960 nM, 5.41 and 8.15.
For `CCCCCC(O)c1ccc(N2C(=O)CC[C@@H]2COCc2csc(C(=O)O)c2)cc1` (stereo partly drawn) [compound 47, (R)-4-(((1-(4-(1-hydroxyhexyl)phenyl)-5-oxopyrrolidin-2-yl)methoxy)methyl)thiophene-2-carboxylic acid] the same measures were 6.11, less than 5.00, 1340 nM, 5.60 and 7.74.
On to `CCCCCC(F)c1ccc(N2C(=O)CC[C@@H]2COCc2csc(C(=O)O)c2)cc1` (stereo partly drawn) [compound 48, (R)-4-(((1-(4-(1-fluorohexyl)phenyl)-5-oxopyrrolidin-2-yl)methoxy)methyl)thiophene-2-carboxylic acid], for which the results for the pKi in data set [1] and in data set [7] were 5.71 and less than 5.00, respectively. The same molecule registered a concentration for a half-maximal effect (EC50) in data set [2] of 3410 nM. Further, the pEC50 is 5.30 in [4] and 7.40 in data set [5].
For the molecule `CCCCCC(F)c1ccc(N2C(=O)CC[C@@H]2CSc2nc(C(=O)O)cs2)cc1` (some centres unmarked) [compound 54], the negative-log Ki (pKi) is 6.46 in data set [1] and less than 5.00 in data set [7]. Moreover, the EC50 is 503 nM in data set [2], 14500 nM in data set [10] and 16400 nM in data set [3]. In addition, the negative-log EC50 (pEC50) in [4] is 6.67; in data set [5], 6.93.
As to `CCCCCC(O)c1ccc(N2C(=O)CC[C@@H]2CSc2nc(C(=O)O)cs2)cc1` (some centres unmarked) [compound 55], the values for the pKi in data set [1] and in data set [7] were 6.45 and less than 5.00, respectively. The 50% effective concentration (EC50) in data set [2] worked out at 360 nM; in data set [10], 3890 nM; in data set [3], 16000 nM. The pEC50 in [4] was 6.55; in [5], 6.92.
Regarding `CCCCCC(O)c1ccc(N2C(=O)CC[C@@H]2CCCc2nc(C(=O)O)cs2)cc1` (stereo partly drawn) [compound 63, (S)-2-(3-(1-(4-(1-hydroxyhexyl)phenyl)-5-oxopyrrolidin-2-yl)propyl)thiazole-4-carboxylic acid], the negative logarithm of the Ki (pKi) in data set [1] was 6.94. In addition, the 50% effective concentration (EC50) in data set [2] is 42 nM; in data set [3] it was greater than 10000 nM. In addition, the pEC50 in data set [4] was 7.43; in [5] it was 9.10.
For `CCCCCC(O)c1ccc(N2C(=O)CC[C@@H]2CCSc2nc(C(=O)OC(C)C)cs2)cc1` (stereo partly drawn) [compound 66, Isopropyl 2-(2-((2R)-1-(4-(1-hydroxyhexyl)phenyl)-5-oxopyrrolidin-2-yl)ethylthio)thiazole-4-carboxylate], in [9] (0.01%, maximum at 28 hours), the “maximum ocular surface hyperemia (OSH) score” value was found to be 1.6.
